# Measurements taken from patent US9006450B2 (Boehringer Ingelheim International GmbH, priority 2010, dated 2015).
# Target: T1, human ACC2 (Homo sapiens, UniProt O00763)
# T1 construct: made in house; host or cells: insect cells (baculoviral expression system)
# Assay: ACC2 assay, spectrophotometric 384 well assay (NADH-linked, coupled lactate dehydrogenase/pyruvate kinase)
# Format: biochemical
# Settings: ACC2 assay, hACC2 construct lacking 128 N-terminal amino acids, 25° C., 340 nm; read-out: IC50
# How it was run: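 ADP output tracked via pyruvate kinase/lactate dehydrogenase NADH oxidation, slope at 340 nm over 15 min, 25° C, with 500 μM ATP and 200 μM each acetyl-CoA and NADH. Enzyme: insect-cell-expressed human ACC2, N-terminal 128 residues deleted; pH 7.5 Tris with citrate, KHCO3. IC50 from four-parameter regression versus vehicle and no-acetyl-CoA controls.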
# T1 sequence (O00763 129-2458 limits assumed): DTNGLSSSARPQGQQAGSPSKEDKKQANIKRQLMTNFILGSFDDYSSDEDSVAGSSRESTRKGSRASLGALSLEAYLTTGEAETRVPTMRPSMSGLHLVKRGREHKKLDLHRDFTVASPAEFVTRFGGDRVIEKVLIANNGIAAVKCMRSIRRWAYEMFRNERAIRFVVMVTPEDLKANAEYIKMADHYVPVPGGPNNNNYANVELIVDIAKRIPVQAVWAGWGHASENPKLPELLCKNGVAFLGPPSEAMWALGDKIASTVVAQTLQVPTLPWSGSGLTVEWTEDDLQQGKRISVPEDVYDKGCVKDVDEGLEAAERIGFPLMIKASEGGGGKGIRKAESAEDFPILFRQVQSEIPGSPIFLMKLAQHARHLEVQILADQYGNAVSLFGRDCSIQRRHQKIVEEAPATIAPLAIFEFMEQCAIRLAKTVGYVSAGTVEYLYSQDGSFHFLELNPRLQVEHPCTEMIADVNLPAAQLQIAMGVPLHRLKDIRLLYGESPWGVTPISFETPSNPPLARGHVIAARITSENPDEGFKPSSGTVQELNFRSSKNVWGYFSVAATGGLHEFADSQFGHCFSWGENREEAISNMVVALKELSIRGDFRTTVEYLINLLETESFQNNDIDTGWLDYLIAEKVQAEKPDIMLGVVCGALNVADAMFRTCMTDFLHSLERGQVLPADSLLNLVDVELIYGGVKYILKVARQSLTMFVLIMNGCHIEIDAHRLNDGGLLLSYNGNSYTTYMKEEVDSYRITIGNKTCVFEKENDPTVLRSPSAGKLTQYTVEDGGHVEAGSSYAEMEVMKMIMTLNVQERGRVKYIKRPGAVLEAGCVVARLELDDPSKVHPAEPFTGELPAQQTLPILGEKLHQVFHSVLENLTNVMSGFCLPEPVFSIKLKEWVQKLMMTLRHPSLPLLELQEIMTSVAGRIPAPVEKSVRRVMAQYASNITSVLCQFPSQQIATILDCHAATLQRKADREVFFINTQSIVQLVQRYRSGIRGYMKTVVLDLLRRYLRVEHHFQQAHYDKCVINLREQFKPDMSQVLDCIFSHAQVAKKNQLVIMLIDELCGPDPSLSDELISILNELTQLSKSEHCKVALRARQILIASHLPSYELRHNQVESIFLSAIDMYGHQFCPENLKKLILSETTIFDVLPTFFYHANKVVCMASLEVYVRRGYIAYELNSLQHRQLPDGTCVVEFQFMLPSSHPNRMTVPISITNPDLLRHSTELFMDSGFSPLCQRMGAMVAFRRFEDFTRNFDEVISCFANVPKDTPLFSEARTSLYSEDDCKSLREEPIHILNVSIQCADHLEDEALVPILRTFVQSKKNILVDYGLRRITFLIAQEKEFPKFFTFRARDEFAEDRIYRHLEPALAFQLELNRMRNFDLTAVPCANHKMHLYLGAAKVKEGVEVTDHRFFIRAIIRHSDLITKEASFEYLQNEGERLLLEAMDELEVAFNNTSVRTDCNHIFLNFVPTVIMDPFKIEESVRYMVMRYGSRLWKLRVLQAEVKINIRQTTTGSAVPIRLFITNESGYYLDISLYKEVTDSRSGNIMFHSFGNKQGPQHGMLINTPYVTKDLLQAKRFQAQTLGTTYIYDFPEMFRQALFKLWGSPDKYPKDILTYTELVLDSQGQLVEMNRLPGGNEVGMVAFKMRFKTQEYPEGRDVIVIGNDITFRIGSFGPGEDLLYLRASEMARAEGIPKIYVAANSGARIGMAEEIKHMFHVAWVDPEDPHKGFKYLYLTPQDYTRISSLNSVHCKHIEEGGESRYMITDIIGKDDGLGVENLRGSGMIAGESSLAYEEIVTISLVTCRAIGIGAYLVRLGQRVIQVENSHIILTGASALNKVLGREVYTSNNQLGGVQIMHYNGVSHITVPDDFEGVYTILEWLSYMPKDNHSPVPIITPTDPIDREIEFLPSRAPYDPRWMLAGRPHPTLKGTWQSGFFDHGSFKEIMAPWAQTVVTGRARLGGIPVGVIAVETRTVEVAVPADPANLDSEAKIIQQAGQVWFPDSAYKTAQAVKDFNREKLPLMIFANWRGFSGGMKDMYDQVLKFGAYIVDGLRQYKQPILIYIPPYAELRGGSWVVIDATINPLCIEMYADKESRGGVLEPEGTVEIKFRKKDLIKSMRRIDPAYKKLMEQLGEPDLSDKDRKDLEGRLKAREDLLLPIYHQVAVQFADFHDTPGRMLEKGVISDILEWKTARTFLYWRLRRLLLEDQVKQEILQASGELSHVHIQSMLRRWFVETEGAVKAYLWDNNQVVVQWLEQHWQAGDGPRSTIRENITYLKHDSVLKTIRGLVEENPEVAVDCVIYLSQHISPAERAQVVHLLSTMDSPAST
row,SMILES,IC50 [nM]
1,CC(=O)N[C@@H](C)c1ccc(C2CCN(c3ncc(C(=O)NC[C@H](O)CO)cn3)CC2)cc1 [Example 18.50],13300
2,COCCOc1cccc(N2CCC(c3ccc([C@H](C)NC(C)=O)cc3)CC2)c1 [Example 9.7],560
3,CCOc1ccc(N2CCC(c3ccc([C@H](C)NC(=O)N4CCOCC4)cc3)CC2)cc1 [Example 14.63],1600
4,C[C@H](NC(=O)C1CC1)c1ccc(C2CCN(c3ncc(-c4ccccc4F)cn3)CC2)cc1 [Example 10.103],560
5,CCOc1ccc(N2CCC(c3ccc([C@H](C)NC(=O)c4nccs4)cc3)CC2)cc1 [Example 6.33],3100
6,"CC(=O)N[C@@H](C)c1ccc(C2CCN(c3cnc(-c4ccccn4)s3)CC2)cc1 [Example 34.1, (S)—N-(1-(4-(1-(2-(Pyridin-2-yl)thiazol-5-yl)piperidin-4-yl)phenyl)ethyl)acetamide]",420
7,CC(=O)N[C@@H](C)c1ccc(C2CCN(c3ccc(C(C)(F)F)cn3)CC2)cc1 [Example 5.34],3200
8,CCNC(=O)c1cnc(N2CCC(c3ccc([C@H](C)NC(C)=O)cc3)CC2)nc1 [Example 18.90],1200
9,CC(=O)N[C@@H](C)c1ccc(C2CCN(c3ccc(Cl)c(F)c3)CC2)cc1 [Example 1.161],640
10,COc1ccnc(N2CCC(c3ccc([C@H](C)NC(C)=O)cc3)CC2)c1 [Example 4.16],1100
11,CC(=O)N[C@@H](C)c1ccc(C2CCN(c3cc(N4CCCCC4)ncn3)CC2)cc1 [Example 11.57],420
12,CCCCOc1ccc(N2CCC(c3ccc([C@H](C)NC(C)=O)cc3)CC2)cc1Cl [Example 8.44],290
13,CC(=O)N[C@@H](C)c1ccc(C2CCN(c3ccc(F)c(F)c3)CC2)cc1 [Example 1.163],670
14,COc1cc(N2CCC(c3ccc([C@H](C)NC(C)=O)cc3)CC2)ccc1OCC1CCC1 [Example 9.43],430
15,CC(=O)N[C@@H](C)c1ccc(C2CCN(c3ccc(C(C)C)cn3)CC2)cc1 [Example 4.13],3200
16,C[C@H](NC(=O)N(C)C)c1ccc(C2CCN(c3ncc(-c4ccoc4)cn3)CC2)cc1 [Example 10.113],530
17,CCC(=O)N[C@@H](C)c1ccc(C2CCN(c3ccc4c(c3)OCCO4)CC2)cc1 [Example 1.146],1100
18,CCCCOc1ccc(N2CCC(c3ccc([C@H](C)NC(C)=O)cc3)CC2)cc1C#N [Example 8.41],4200
19,COc1cccc(NC(=O)c2cnc(N3CCC(c4ccc([C@H](C)NC(C)=O)cc4)CC3)nc2)c1 [Example 18.12],420
20,CCOc1ncc(N2CCC(c3ccc([C@H](C)NC(=O)N(C)C)cc3)CC2)cn1 [Example 16.7],1400
21,"CC(=O)N[C@@H](C)c1ccc(C2CCN(c3noc(-c4ccccc4)n3)CC2)cc1 [Example 26.1, (S)—N-(1-{4-[1-(5-Phenyl-[1,2,4]oxadiazol-3-yl)-piperidin-4-yl]-phenyl}-ethyl)-acetamide]",1900
22,COc1cccc(COc2cc(N3CCC(c4ccc([C@H](C)NC(C)=O)cc4)CC3)ccn2)c1 [Example 19.8],1500
23,CCOC(=O)c1cc2cc(N3CCC(c4ccc([C@H](C)NC(C)=O)cc4)CC3)ccc2o1 [Example 15.17],300

row,SMILES,IC50 [nM]
1,CCCC(C)Oc1ccc(N2CCC(c3ccc([C@H](C)NC(C)=O)cc3)CC2)cc1OC (stereo partly shown) [Example 8.59],840
2,CC(=O)N[C@@H](C)c1ccc(C2CCN(c3ccc(OCC4CCC4)c(C#N)c3)CC2)cc1 [Example 9.36],3300
3,CCc1nc(N2CCC(c3ccc([C@H](C)NC(C)=O)cc3)CC2)no1 [Example 26.2],4100
4,CC(=O)N[C@@H](C)c1ccc(C2CCN(c3cc(O)ncn3)CC2)cc1 [Example 11.116],14500
5,CC(=O)N[C@@H](C)c1ccc(C2CCN(c3ccc4oc(=O)[nH]c4c3)CC2)cc1 [Example 1.68],23900
6,CC(=O)N[C@@H](C)c1ccc(C2CCN(c3ccnc(OCc4ccc(F)cc4)c3)CC2)cc1 [Example 19.33],400
7,CCOc1ccc(N2CCC(c3ccc(C(CC)NC(C)=O)cc3)CC2)c(F)c1 (stereo not shown) [Example 1.207],5100
8,CC(=O)N[C@@H](C)c1ccc(C2CCN(c3ccnc(OCc4ccncc4)c3)CC2)cc1 [Example 19.38],1200
9,C[C@H](NC(=O)N(C)C)c1ccc(C2CCN(c3cccc(OCC4CC4)c3)CC2)cc1 [Example 1.80],530
10,"CCOc1ccc(N2CCC(c3ccc([C@H](C)NC(=O)CC(N)=O)cc3)CC2)cc1 [Example 33.1, (S)—N-(1-{4-[1-(4-Ethoxyphenyl)piperidin-4-yl]phenyl}ethyl)malonamide]",1700
11,"CCOc1ccc(N2CCC(c3ccc([C@H](C)NC(=O)CC(=O)OC)cc3)CC2)cc1 [Example 31.1, (S)-Methyl 3-(1-(4-(1-(4-Ethoxyphenyl)piperidin-4-yl)phenyl)ethylamino)-3-oxopropanoate]",1600
12,CC(=O)N[C@@H](C)c1ccc(C2CCN(c3cc(O[C@H]4CCOC4)ncn3)CC2)cc1 [Example 11.17],1200
13,CC(=O)N[C@@H](C)c1ccc(C2CCN(c3nc(C)cs3)CC2)cc1 [Example 5.22],2300
14,CC(=O)N[C@@H](C)c1ccc(C2CCN(c3ccnc(OCCC4CC4)n3)CC2)cc1 [Example 11.4],450
15,CC(=O)N[C@@H](C)c1ccc(C2CCN(c3ncc(-c4cccc5[nH]ccc45)cn3)CC2)cc1 [Example 10.120],740
16,"CC(=O)N[C@@H](C)c1ccc(C2CCN(c3ccc(OC4CCOCC4)cc3)CC2)cc1 [Example 7.1, (S)—N-[1-(4-{1-[4-(Tetrahydro-2H-pyran-4-yloxy)-phenyl]-piperidin-4-yl}-phenyl)-ethyl]-acetamide]",580
17,CC(=O)N[C@@H](C)c1ccc(C2CCN(c3cc4c(cc3C#N)OCO4)CC2)cc1 [Example 1.73],3400
18,CCOc1ccc(N2CCC(c3ccc([C@H](C)NC(=O)Nc4ccon4)cc3)CC2)cc1 [Example 14.70],790
19,COCCOc1ccc(N2CCC(c3ccc([C@H](C)NC(C)=O)cc3)CC2)cc1 [Example 9.24],470
20,CC(=O)N[C@@H](C)c1ccc(C2CCN(c3ccc4ccccc4n3)CC2)cc1 [Example 4.3],450
21,CCOc1ccc(N2CCC(c3ccc([C@H](C)NC(=O)Nc4ncccn4)cc3)CC2)cc1 [Example 14.56],14700
22,"CCOc1ccc(N2CCC(c3ccc([C@H](C)NC(=O)N(C)C4CC4)cc3)CC2)cc1 [Example 14.50, (S)-1-Cyclopropyl-3-(1-{4-[1-(4-ethoxy-phenyl)-piperidin-4-yl]-phenyl}-ethyl)-1-methylurea]",3800

# Stronger by IC50, values ahead:
row,IC50 [nM],SMILES
1,180,CC(=O)N[C@@H](C)c1ccc(C2CCN(c3ccnc(Oc4ccc(F)cc4)n3)CC2)cc1 [Example 11.6]
2,70,CC(=O)N[C@@H](C)c1ccc(C2CCN(c3ncc(-c4ccc5c(c4)OCO5)cn3)CC2)cc1 [Example 10.87]
3,120,CCCOc1ccc(N2CCC(c3ccc([C@H](C)NC(=O)N(C)C)cc3)CC2)cc1 [Example 1.8]
4,140,COC(=O)N[C@@H](C)c1ccc(C2CCN(c3ccc(OCC4CC4)cc3)CC2)cc1 [Example 1.22]
5,110,CC(=O)N[C@@H](C)c1ccc(C2CCN(c3ccnc(OC(C)C)c3)CC2)cc1 [Example 3.3]
6,100,CC(=O)N[C@@H](C)c1ccc(C2CCN(c3ccc(OCC(C)(C)C)cc3)CC2)cc1 [Example 9.21]
7,130,COc1cc(-c2cnc(N3CCC(c4ccc([C@H](C)NC(C)=O)cc4)CC3)nc2)ccn1 [Example 10.29]
8,80,C[C@H](NC(=O)N(C)C)c1ccc(C2CCN(c3ncc4nc(-c5ccccc5)oc4n3)CC2)cc1 [Example 4.47]
9,260,CC(=O)N[C@@H](C)c1ccc(C2CCN(c3ncc(C(=O)Nc4cccc(C)c4)cn3)CC2)cc1 [Example 18.8]
10,100,CCc1ccc(-c2cnc(N3CCC(c4ccc([C@H](C)NC(C)=O)cc4)CC3)nc2)cc1 [Example 10.6]
11,80,CC(=O)N[C@@H](C)c1ccc(C2CCN(c3ccnc(OCC4(C)CC4)c3)CC2)cc1 [Example 19.15]
12,70,CC(=O)N[C@@H](C)c1ccc(C2CCN(c3ncc(-c4ccc(C#N)cc4)cn3)CC2)cc1 [Example 10.10]
13,100,C[C@H](NC(=O)N(C)C)c1ccc(C2CCN(c3ccc(OC4CCCC4)cc3)CC2)cc1 [Example 1.125]
14,80,CCC(C)Oc1ccc(N2CCC(c3ccc([C@H](C)NC(=O)OC)cc3)CC2)cc1 (stereo partly shown) [Example 1.130]
15,90,CC(=O)N[C@@H](C)c1ccc(C2CCN(c3ccc(OCC(C)C)cn3)CC2)cc1 [Example 5.4]
16,190,CC(=O)N[C@@H](C)c1ccc(C2CCN(c3cccc(OC4CCOCC4)c3)CC2)cc1 [Example 7.2]
17,250,CC(=O)N[C@@H](C)c1ccc(C2CCN(c3cc(OCCC4CC4)ncn3)CC2)cc1 [Example 11.3]
18,170,CCOC(=O)c1ccnc(N2CCC(c3ccc([C@H](C)NC(C)=O)cc3)CC2)c1C [Example 5.29]
19,90,CCCCOc1ccc(N2CCC(c3ccc([C@H](C)NC(C)=O)cc3)CC2)cc1F [Example 8.42]
20,260,C[C@H](NC(=O)C1CC1)c1ccc(C2CCN(c3ccc4c(c3)OCCO4)CC2)cc1 [Example 1.19]
21,80,CC(=O)N[C@@H](C)c1ccc(C2CCN(c3ncc(-c4ccc(C#N)s4)cc3F)CC2)cc1 [Example 10.309]
22,70,C=CCCOc1ccc(N2CCC(c3ccc([C@H](C)NC(C)=O)cc3)CC2)cc1 [Example 9.27]
23,120,CC(C)Oc1cc(N2CCC(c3ccc([C@H](C)NC(=O)N(C)C)cc3)CC2)ccn1 [Example 1.128]
24,150,CC(=O)N[C@@H](C)c1ccc(C2CCN(c3ncc(C4=CCCCC4)cn3)CC2)cc1 [Example 10.71]
25,80,CC(=O)N[C@@H](C)c1ccc(C2CCN(c3ccc4oc(-c5ccccc5)nc4c3)CC2)cc1 [Example 1.71]
